# Assay results reported in publication PMC3969223, “Characterization of WZ4003 and HTH-01-015 as selective inhibitors of the LKB1-tumour-suppressor-activated NUAK kinases” (Biochemical Journal, 2013).
# Assays:
# Assay in all cases: Kinase profiling
# Assay type in all cases: biochemical
# TAO1 = TAO1 (Homo sapiens, UniProt Q7L7X3); conditions: 0.1 or 1 μM inhibitor; mean of triplicate
# Description: (§1) Kinase inhibitor specificity profiling assays were carried out at The International Centre for Protein Kinase Profiling (http://www.kinase-screen.mrc.ac.uk/) against a panel of 140 protein kinases as described previously. Results are presented as a percentage of kinase activity in DMSO control reactions. Protein kinases were assayed in vitro with 0.1 or 1 μM of the inhibitors and the results are presented as an average of triplicate reactions±S.D. or in the form of comparative histograms.
# CAMKKβ = CAMKKβ (Homo sapiens, UniProt Q96RR4); conditions: 0.1 or 1 μM inhibitor; mean of triplicate
# Sequence of CAMKKβ (Q96RR4 whole entry): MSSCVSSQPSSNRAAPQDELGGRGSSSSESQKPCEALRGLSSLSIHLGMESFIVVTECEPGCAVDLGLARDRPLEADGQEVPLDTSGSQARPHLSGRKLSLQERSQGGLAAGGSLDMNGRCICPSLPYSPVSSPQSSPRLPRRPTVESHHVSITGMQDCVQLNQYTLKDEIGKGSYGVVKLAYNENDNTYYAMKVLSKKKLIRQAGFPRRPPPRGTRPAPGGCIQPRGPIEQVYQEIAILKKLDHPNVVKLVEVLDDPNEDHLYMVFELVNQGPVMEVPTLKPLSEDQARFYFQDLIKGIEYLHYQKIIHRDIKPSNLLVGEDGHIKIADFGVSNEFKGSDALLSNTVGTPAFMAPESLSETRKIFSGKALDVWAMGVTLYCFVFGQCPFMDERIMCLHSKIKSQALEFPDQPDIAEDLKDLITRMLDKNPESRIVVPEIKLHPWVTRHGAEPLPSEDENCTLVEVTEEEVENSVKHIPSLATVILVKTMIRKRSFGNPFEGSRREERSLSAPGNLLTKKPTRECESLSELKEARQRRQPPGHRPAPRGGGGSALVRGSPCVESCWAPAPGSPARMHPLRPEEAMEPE
# Description: as §1
# IGF-1R = IGF-1R (Homo sapiens, UniProt P08069); conditions: 0.1 or 1 μM inhibitor; mean of triplicate
# Description: as §1
# RSK2 = RSK2 (Homo sapiens, UniProt P51812); conditions: 0.1 or 1 μM inhibitor; mean of triplicate
# Description: as §1
# MINK1 = MINK1 (Homo sapiens, UniProt Q8N4C8); conditions: 0.1 or 1 μM inhibitor; mean of triplicate
# Description: as §1
# GSK3β = GSK3β (Homo sapiens, UniProt P49841); conditions: 0.1 or 1 μM inhibitor; mean of triplicate
# Description: as §1
# NEK6 = NEK6 (Homo sapiens, UniProt Q9HC98); conditions: 0.1 or 1 μM inhibitor; mean of triplicate
# Sequence of NEK6 (Q9HC98 whole entry): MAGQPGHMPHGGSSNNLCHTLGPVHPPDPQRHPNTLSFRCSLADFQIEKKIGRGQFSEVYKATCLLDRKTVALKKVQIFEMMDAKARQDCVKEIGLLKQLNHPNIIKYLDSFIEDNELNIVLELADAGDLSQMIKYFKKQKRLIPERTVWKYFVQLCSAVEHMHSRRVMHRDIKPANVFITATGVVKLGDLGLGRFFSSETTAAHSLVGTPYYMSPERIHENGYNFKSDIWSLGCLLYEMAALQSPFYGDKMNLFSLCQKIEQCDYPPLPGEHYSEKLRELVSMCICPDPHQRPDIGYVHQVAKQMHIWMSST
# Description: as §1
# PKCγ = PKCγ (Homo sapiens, UniProt P05129); conditions: 0.1 or 1 μM inhibitor; mean of triplicate
# Description: as §1
# AMPK = tested on: AMPK
# Description: as §1
# HIPK3 = HIPK3 (Homo sapiens, UniProt Q9H422); conditions: 0.1 or 1 μM inhibitor; mean of triplicate
# Description: as §1
# ROCK 2 = ROCK 2 (Homo sapiens, UniProt O75116); conditions: 0.1 or 1 μM inhibitor; mean of triplicate
# Description: as §1
# MAPKAP-K3 = MAPKAP-K3 (Homo sapiens, UniProt Q16644); conditions: 0.1 or 1 μM inhibitor; mean of triplicate
# Description: as §1
# IRAK4 = IRAK4 (Homo sapiens, UniProt Q9NWZ3); conditions: 0.1 or 1 μM inhibitor; mean of triplicate
# Description: as §1
# BTK = BTK (Homo sapiens, UniProt Q06187); conditions: 0.1 or 1 μM inhibitor; mean of triplicate
# Sequence of BTK (Q06187 whole entry): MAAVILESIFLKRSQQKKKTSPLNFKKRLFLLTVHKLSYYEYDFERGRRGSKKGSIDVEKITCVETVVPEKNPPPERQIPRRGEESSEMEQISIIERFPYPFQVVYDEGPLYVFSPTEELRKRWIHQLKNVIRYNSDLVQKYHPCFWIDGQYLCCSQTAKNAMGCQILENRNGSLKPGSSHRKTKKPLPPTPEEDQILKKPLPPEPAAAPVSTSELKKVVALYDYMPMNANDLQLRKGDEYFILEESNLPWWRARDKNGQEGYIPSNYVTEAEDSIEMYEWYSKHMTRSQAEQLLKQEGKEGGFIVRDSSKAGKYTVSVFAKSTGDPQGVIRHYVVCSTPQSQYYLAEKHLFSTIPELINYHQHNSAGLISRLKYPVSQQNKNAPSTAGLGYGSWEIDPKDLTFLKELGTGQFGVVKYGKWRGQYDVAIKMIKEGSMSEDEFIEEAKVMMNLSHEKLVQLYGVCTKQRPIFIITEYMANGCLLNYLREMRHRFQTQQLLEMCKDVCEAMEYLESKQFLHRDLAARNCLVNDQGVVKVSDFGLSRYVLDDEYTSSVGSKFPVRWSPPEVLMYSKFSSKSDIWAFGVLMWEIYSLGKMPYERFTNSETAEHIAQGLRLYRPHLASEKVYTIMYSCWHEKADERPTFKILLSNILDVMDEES
# Description: as §1
# Src = Src (Homo sapiens, UniProt P12931); conditions: 0.1 or 1 μM inhibitor; mean of triplicate
# Description: as §1
# MKK1 = MKK1 (Homo sapiens, UniProt Q02750); conditions: 0.1 or 1 μM inhibitor; mean of triplicate
# Description: as §1
# MKK2 = MKK2 (Homo sapiens, UniProt P36507); conditions: 0.1 or 1 μM inhibitor; mean of triplicate
# Description: as §1
# PKCζ = PKCζ (Homo sapiens, UniProt Q05513); conditions: 0.1 or 1 μM inhibitor; mean of triplicate
# Description: as §1
# PAK6 = PAK6 (Homo sapiens, UniProt Q9NQU5); conditions: 0.1 or 1 μM inhibitor; mean of triplicate
# Description: as §1
# EIF2AK3 = EIF2AK3 (Homo sapiens, UniProt Q9NZJ5); conditions: 0.1 or 1 μM inhibitor; mean of triplicate
# Sequence of EIF2AK3 (Q9NZJ5 30-1116): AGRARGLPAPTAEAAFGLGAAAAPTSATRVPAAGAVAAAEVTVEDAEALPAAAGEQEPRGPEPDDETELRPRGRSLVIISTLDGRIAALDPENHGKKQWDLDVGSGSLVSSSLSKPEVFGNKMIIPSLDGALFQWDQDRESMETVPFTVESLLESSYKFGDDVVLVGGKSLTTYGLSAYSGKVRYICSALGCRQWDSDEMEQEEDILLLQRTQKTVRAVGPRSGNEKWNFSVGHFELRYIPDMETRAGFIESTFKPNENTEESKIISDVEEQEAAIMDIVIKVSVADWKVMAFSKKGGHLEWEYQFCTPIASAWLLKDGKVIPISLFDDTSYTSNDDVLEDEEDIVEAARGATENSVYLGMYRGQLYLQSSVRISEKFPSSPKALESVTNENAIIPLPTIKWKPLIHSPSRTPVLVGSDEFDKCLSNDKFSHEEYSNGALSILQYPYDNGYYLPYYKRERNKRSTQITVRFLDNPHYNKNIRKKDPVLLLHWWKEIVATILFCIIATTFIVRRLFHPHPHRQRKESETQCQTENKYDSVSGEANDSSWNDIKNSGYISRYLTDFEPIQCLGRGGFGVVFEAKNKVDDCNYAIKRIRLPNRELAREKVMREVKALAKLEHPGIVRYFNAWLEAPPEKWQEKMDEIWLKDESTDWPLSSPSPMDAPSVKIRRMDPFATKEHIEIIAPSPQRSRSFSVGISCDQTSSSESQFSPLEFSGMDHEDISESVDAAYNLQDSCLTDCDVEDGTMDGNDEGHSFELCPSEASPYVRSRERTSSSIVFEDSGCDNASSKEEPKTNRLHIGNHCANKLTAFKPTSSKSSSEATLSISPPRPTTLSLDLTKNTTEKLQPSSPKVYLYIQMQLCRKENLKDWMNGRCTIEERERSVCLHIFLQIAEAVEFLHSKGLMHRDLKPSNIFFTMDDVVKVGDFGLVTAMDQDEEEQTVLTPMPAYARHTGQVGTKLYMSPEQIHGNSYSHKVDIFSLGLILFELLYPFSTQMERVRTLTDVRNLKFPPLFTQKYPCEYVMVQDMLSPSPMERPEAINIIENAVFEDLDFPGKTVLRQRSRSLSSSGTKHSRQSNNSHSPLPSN
# Description: as §1
# EPH-B2 = EPH-B2 (Homo sapiens, UniProt P29323); conditions: 0.1 or 1 μM inhibitor; mean of triplicate
# Description: as §1
# CK2 = CK2 (Homo sapiens, UniProt P68400); conditions: 0.1 or 1 μM inhibitor; mean of triplicate
# Description: as §1
# ASK1 = ASK1 (Homo sapiens, UniProt Q99683); conditions: 0.1 or 1 μM inhibitor; mean of triplicate
# Description: as §1
# PKBα = PKBα (Homo sapiens, UniProt P31749); conditions: 0.1 or 1 μM inhibitor; mean of triplicate
# Description: as §1
# p38β MAPK = p38β MAPK (Homo sapiens, UniProt Q15759); conditions: 0.1 or 1 μM inhibitor; mean of triplicate
# Sequence of p38β MAPK (Q15759 whole entry): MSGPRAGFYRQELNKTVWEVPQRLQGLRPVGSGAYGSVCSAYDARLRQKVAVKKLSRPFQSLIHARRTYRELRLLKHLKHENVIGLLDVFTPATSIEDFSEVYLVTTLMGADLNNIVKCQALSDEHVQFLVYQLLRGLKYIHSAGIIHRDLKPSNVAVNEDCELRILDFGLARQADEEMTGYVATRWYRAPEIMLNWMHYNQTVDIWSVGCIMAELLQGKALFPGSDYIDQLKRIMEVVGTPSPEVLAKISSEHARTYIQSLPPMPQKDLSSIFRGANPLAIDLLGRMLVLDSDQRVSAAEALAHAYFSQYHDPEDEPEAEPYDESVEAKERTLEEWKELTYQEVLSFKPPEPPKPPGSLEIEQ
# Description: as §1
# IKKε = IKKε (Homo sapiens, UniProt Q14164); conditions: 0.1 or 1 μM inhibitor; mean of triplicate
# Sequence of IKKε (Q14164 whole entry): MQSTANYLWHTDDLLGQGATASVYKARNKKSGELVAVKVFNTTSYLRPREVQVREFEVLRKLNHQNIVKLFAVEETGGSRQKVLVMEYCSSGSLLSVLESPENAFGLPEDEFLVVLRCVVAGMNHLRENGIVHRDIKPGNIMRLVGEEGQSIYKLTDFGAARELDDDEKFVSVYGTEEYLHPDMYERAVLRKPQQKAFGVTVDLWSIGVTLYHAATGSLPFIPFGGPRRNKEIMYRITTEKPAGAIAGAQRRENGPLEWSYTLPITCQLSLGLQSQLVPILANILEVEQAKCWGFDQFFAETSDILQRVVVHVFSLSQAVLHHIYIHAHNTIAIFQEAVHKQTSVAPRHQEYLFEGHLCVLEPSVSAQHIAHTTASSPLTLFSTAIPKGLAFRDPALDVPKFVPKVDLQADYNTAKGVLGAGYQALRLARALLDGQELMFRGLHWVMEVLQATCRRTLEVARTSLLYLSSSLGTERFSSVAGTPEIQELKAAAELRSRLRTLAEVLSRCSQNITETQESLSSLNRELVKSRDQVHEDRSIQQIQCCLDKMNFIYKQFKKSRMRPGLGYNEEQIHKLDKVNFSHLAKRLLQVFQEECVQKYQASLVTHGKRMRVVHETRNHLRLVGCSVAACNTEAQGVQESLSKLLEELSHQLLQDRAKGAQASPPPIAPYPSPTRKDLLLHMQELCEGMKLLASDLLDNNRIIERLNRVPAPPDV
# Description: as §1
# PDK1 = PDK1 (Homo sapiens, UniProt O15530); conditions: 0.1 or 1 μM inhibitor; mean of triplicate
# Description: as §1
# SIK2 = SIK2 (Homo sapiens, UniProt Q9H0K1); conditions: 0.1 or 1 μM inhibitor; mean of triplicate
# Description: as §1
# MARK3 = MARK3 (Homo sapiens, UniProt P27448)
# Description: as §1
# DYRK1A = DYRK1A (Homo sapiens, UniProt Q13627); conditions: 0.1 or 1 μM inhibitor; mean of triplicate
# Description: as §1
# MAP4K5 = MAP4K5 (Homo sapiens, UniProt Q9Y4K4); conditions: 0.1 or 1 μM inhibitor; mean of triplicate
# Description: as §1
# EPH-B1 = EPH-B1 (Homo sapiens, UniProt P54762); conditions: 0.1 or 1 μM inhibitor; mean of triplicate
# Description: as §1
# SIK3 = SIK3 (Homo sapiens, UniProt Q9Y2K2); conditions: 0.1 or 1 μM inhibitor; mean of triplicate
# Description: as §1
# VEG-FR = VEG-FR (Homo sapiens, UniProt P17948); conditions: 0.1 or 1 μM inhibitor; mean of triplicate
# Description: as §1
# TTBK1 = TTBK1 (Homo sapiens, UniProt Q5TCY1); conditions: 0.1 or 1 μM inhibitor; mean of triplicate
# Sequence of TTBK1 (Q5TCY1 whole entry): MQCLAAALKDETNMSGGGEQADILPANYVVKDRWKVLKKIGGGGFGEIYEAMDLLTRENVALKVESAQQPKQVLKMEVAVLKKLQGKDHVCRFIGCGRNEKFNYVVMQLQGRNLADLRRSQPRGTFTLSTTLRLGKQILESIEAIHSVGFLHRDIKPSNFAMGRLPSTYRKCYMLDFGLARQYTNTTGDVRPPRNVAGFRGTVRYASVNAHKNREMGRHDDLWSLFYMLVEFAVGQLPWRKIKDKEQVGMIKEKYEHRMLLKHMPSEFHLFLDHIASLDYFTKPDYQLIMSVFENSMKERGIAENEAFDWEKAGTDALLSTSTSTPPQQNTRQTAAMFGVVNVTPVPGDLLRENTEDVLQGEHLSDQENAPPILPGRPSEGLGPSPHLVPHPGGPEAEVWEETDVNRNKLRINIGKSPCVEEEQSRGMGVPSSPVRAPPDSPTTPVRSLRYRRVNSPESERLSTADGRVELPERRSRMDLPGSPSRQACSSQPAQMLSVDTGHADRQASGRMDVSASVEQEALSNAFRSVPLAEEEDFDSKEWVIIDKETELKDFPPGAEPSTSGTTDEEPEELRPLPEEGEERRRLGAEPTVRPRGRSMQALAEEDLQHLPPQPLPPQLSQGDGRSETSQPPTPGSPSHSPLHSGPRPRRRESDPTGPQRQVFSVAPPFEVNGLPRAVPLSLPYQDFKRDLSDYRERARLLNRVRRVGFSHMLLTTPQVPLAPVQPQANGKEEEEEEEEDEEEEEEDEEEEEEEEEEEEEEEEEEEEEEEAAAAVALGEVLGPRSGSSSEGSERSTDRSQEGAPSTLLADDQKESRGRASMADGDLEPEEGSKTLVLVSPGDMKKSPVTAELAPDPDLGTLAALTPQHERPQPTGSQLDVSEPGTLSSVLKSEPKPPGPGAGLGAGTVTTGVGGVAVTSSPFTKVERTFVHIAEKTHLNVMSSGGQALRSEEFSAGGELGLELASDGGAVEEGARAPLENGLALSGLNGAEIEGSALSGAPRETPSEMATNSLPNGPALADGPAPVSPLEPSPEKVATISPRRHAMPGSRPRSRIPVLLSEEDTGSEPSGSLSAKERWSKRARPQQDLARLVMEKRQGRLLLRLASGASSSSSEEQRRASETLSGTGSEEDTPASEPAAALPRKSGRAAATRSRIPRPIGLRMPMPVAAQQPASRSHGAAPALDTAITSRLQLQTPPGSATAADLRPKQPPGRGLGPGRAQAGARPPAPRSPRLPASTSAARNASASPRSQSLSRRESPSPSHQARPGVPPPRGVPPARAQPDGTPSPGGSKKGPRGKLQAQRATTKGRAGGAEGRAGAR
# Description: as §1
# HIPK1 = HIPK1 (Homo sapiens, UniProt Q86Z02); conditions: 0.1 or 1 μM inhibitor; mean of triplicate
# Description: as §1
# CK1γ 2 = CK1γ 2 (Homo sapiens, UniProt P78368); conditions: 0.1 or 1 μM inhibitor; mean of triplicate
# Description: as §1
# PAK2 = PAK2 (Homo sapiens, UniProt Q13177); conditions: 0.1 or 1 μM inhibitor; mean of triplicate
# Description: as §1
# ERK2 = ERK2 (Homo sapiens, UniProt P28482); conditions: 0.1 or 1 μM inhibitor; mean of triplicate
# Description: as §1
# FGF-R1 = FGF-R1 (Homo sapiens, UniProt P11362); conditions: 0.1 or 1 μM inhibitor; mean of triplicate
# Description: as §1
# RIPK2 = RIPK2 (Homo sapiens, UniProt O43353); conditions: 0.1 or 1 μM inhibitor; mean of triplicate
# Description: as §1
# TGFBR1 = TGFBR1 (Homo sapiens, UniProt P36897); conditions: 0.1 or 1 μM inhibitor; mean of triplicate
# Description: as §1
# PIM2 = PIM2 (Homo sapiens, UniProt Q9P1W9); conditions: 0.1 or 1 μM inhibitor; mean of triplicate
# Description: as §1
# [1] = 0.1 or 1 μM inhibitor, mean of triplicate
smiles,measurement,setting,value
Cc1nc(Nc2cnn(C3CCNCC3)c2)nc2c1N(C)C(=O)c1cc3ccccc3cc1N2C [HTH-01-015],"TAO1 activity, percentage of DMSO control",TAO1,123 percentage
same,"CAMKKβ activity, percentage of DMSO control",CAMKKβ,87 percentage
same,"IGF-1R activity, percentage of DMSO control",IGF-1R,133 percentage
same,"RSK2 activity, percentage of DMSO control",RSK2,106 percentage
same,"MINK1 activity, percentage of DMSO control",MINK1,101 percentage
same,"GSK3β activity, percentage of DMSO control",GSK3β,119 percentage
same,"NEK6 activity, percentage of DMSO control",NEK6,99 percentage
same,"PKCγ activity, percentage of DMSO control",PKCγ,107 percentage
same,"AMPK activity, percentage of DMSO control",AMPK; [1],127 percentage
same,"HIPK3 activity, percentage of DMSO control",HIPK3,96 percentage
same,"ROCK 2 activity, percentage of DMSO control",ROCK 2,110 percentage
same,"MAPKAP-K3 activity, percentage of DMSO control",MAPKAP-K3,96 percentage
same,"IRAK4 activity, percentage of DMSO control",IRAK4,103 percentage
same,"BTK activity, percentage of DMSO control",BTK,109 percentage
same,"Src activity, percentage of DMSO control",Src,76 percentage
same,"MKK1 activity, percentage of DMSO control",MKK1,113 percentage
same,"MKK2 activity, percentage of DMSO control",MKK2,111 percentage
same,"PKCζ activity, percentage of DMSO control",PKCζ,98 percentage
same,"PAK6 activity, percentage of DMSO control",PAK6,95 percentage
same,"EIF2AK3 activity, percentage of DMSO control",EIF2AK3,99 percentage
same,"EPH-B2 activity, percentage of DMSO control",EPH-B2,97 percentage
same,"CK2 activity, percentage of DMSO control",CK2,120 percentage
same,"ASK1 activity, percentage of DMSO control",ASK1,105 percentage
same,"PKBα activity, percentage of DMSO control",PKBα,87 percentage
same,"p38β MAPK activity, percentage of DMSO control",p38β MAPK,112 percentage
same,"IKKε activity, percentage of DMSO control",IKKε,85 percentage
same,"PDK1 activity, percentage of DMSO control",PDK1,102 percentage
same,"SIK2 activity, percentage of DMSO control",SIK2,112 percentage
same,"MARK3 activity, percentage of DMSO control",MARK3; [1],102 percentage
same,"DYRK1A activity, percentage of DMSO control",DYRK1A,89 percentage
same,"MAP4K5 activity, percentage of DMSO control",MAP4K5,106 percentage
same,"EPH-B1 activity, percentage of DMSO control",EPH-B1,97 percentage
same,"SIK3 activity, percentage of DMSO control",SIK3,109 percentage
same,"VEG-FR activity, percentage of DMSO control",VEG-FR,97 percentage
same,"TTBK1 activity, percentage of DMSO control",TTBK1,124 percentage
same,"HIPK1 activity, percentage of DMSO control",HIPK1,107 percentage
same,"CK1γ 2 activity, percentage of DMSO control",CK1γ 2,109 percentage
same,"PAK2 activity, percentage of DMSO control",PAK2,125 percentage
same,"ERK2 activity, percentage of DMSO control",ERK2,125 percentage
same,"FGF-R1 activity, percentage of DMSO control",FGF-R1,105 percentage
same,"RIPK2 activity, percentage of DMSO control",RIPK2,88 percentage
same,"TGFBR1 activity, percentage of DMSO control",TGFBR1,102 percentage
same,"PIM2 activity, percentage of DMSO control",PIM2,106 percentage
CCC(=O)Nc1cccc(Oc2nc(Nc3ccc(N4CCN(C)CC4)cc3OC)ncc2Cl)c1 [WZ4003],"TAO1 activity, percentage of DMSO control",TAO1,101 percentage
same,"CAMKKβ activity, percentage of DMSO control",CAMKKβ,44 percentage
same,"IGF-1R activity, percentage of DMSO control",IGF-1R,33 percentage
same,"RSK2 activity, percentage of DMSO control",RSK2,76 percentage
same,"MINK1 activity, percentage of DMSO control",MINK1,120 percentage
same,"GSK3β activity, percentage of DMSO control",GSK3β,88 percentage
same,"NEK6 activity, percentage of DMSO control",NEK6,79 percentage
same,"PKCγ activity, percentage of DMSO control",PKCγ,103 percentage
same,"HIPK3 activity, percentage of DMSO control",HIPK3,91 percentage
same,"ROCK 2 activity, percentage of DMSO control",ROCK 2,80 percentage
same,"MAPKAP-K3 activity, percentage of DMSO control",MAPKAP-K3,91 percentage
same,"IRAK4 activity, percentage of DMSO control",IRAK4,92 percentage
same,"BTK activity, percentage of DMSO control",BTK,114 percentage
same,"Src activity, percentage of DMSO control",Src,109 percentage
same,"MKK1 activity, percentage of DMSO control",MKK1,98 percentage
same,"MKK2 activity, percentage of DMSO control",MKK2,98 percentage
same,"PKCζ activity, percentage of DMSO control",PKCζ,86 percentage
same,"PAK6 activity, percentage of DMSO control",PAK6,104 percentage
same,"EIF2AK3 activity, percentage of DMSO control",EIF2AK3,76 percentage
same,"EPH-B2 activity, percentage of DMSO control",EPH-B2,107 percentage
same,"CK2 activity, percentage of DMSO control",CK2,76 percentage
same,"ASK1 activity, percentage of DMSO control",ASK1,107 percentage
same,"PKBα activity, percentage of DMSO control",PKBα,98 percentage
same,"p38β MAPK activity, percentage of DMSO control",p38β MAPK,104 percentage
same,"IKKε activity, percentage of DMSO control",IKKε,104 percentage
same,"PDK1 activity, percentage of DMSO control",PDK1,104 percentage
same,"SIK2 activity, percentage of DMSO control",SIK2,70 percentage
same,"DYRK1A activity, percentage of DMSO control",DYRK1A,102 percentage
same,"MAP4K5 activity, percentage of DMSO control",MAP4K5,108 percentage
same,"EPH-B1 activity, percentage of DMSO control",EPH-B1,98 percentage
same,"SIK3 activity, percentage of DMSO control",SIK3,102 percentage
same,"VEG-FR activity, percentage of DMSO control",VEG-FR,74 percentage
same,"TTBK1 activity, percentage of DMSO control",TTBK1,78 percentage
same,"HIPK1 activity, percentage of DMSO control",HIPK1,103 percentage
same,"CK1γ 2 activity, percentage of DMSO control",CK1γ 2,102 percentage
same,"PAK2 activity, percentage of DMSO control",PAK2,92 percentage
same,"ERK2 activity, percentage of DMSO control",ERK2,107 percentage
same,"FGF-R1 activity, percentage of DMSO control",FGF-R1,66 percentage
same,"RIPK2 activity, percentage of DMSO control",RIPK2,105 percentage
same,"TGFBR1 activity, percentage of DMSO control",TGFBR1,102 percentage
same,"PIM2 activity, percentage of DMSO control",PIM2,101 percentage
CN1C(=O)c2ccccc2N(C)c2nc(Nc3cnn(C4CCNCC4)c3)ncc21 [XMD-17-51],Inhibition of AMPK in profiling (in words),AMPK; 1 μM,inhibited
same,Inhibition of MARK3 in profiling (in words),MARK3; 1 μM,inhibited
